# Measurements from ChEMBL document CHEMBL5338785, “Development of Aromatic-Linked Diamino Acid Antimicrobial Peptide Mimics with Low Hemolytic Toxicity and Excellent Activity against Methicillin-Resistant Staphylococcus aureus (MRSA)” (J Med Chem, 2023).
# Active and inactive are the calls of the source. The rule behind the calls is not given here.
# Columns and labels:
# [1] = test system: Staphylococcus aureus; test: Antibacterial activity against methicillin-resistant Staphylococcus aureus assessed as bacterial growth inhibition incubated for 24 hrs by Luria-Bertani broth based method; assay type: functional
# [2] = Hemolytic activity in human RBC assessed as hemolysis incubated for 1 hr; assay type: toxicity, cell-based, Erythrocyte; details: human red blood cells
# [3] = Selectivity index, ratio of HC50 for hemolytic activity in human RBC to MIC for antibacterial activity against methicillin-resistant Staphylococcus aureus assessed as bacterial growth inhibition; assay type: toxicity; details: human red blood cells
# [4] = Hemolytic activity in mammalian RBC assessed as hemolysis at 320 ug/ml incubated for 1 hr by microplate reader analysis; assay type: toxicity, cell-based, Erythrocyte; details: mammalia, mammalian red blood cells, at 320 µg/mL, read-out: Activity
# [5] = test system: Staphylococcus aureus; test: Antibacterial activity against methicillin-resistant Staphylococcus aureus assessed as bacterial growth inhibition incubated for 18 hrs by CLSI protocol based Mueller-Hinton broth assay; assay type: functional; details: Staphylococcus aureus, read-out: MIC
# [6] = test system: Enterococcus faecalis; test: Antibacterial activity against Enterococcus faecalis assessed as bacterial growth inhibition incubated for 18 hrs by CLSI protocol based Mueller-Hinton broth assay; assay type: functional; details: Enterococcus faecalis, 18 h, read-out: MIC
# [7] = test system: Escherichia coli; test: Antibacterial activity against Escherichia coli assessed as bacterial growth inhibition incubated for 18 hrs by CLSI protocol based Mueller-Hinton broth assay; assay type: functional; details: Escherichia coli, read-out: MIC
# [8] = test system: Stenotrophomonas maltophilia; test: Antibacterial activity against Stenotrophomonas maltophilia assessed as bacterial growth inhibition incubated for 18 hrs by CLSI protocol based Mueller-Hinton broth assay; assay type: functional; details: Stenotrophomonas maltophilia, read-out: MIC
# [9] = Hemolytic activity in sheep RBC assessed as hemolysis incubated for 1 hr by microplate reader method; assay type: toxicity, cell-based, Ovis aries, Erythrocyte; details: sheep red blood cells
# [10] = Selectivity index, ratio of HC50 for hemolytic activity in sheep RBC to MIC for antibacterial activity against methicillin-resistant Staphylococcus aureus assessed as bacterial growth inhibition; assay type: toxicity; details: sheep red blood cells
# [11] = Selectivity index, ratio of HC50 for hemolytic activity in sheep RBC to IC50 for antibacterial activity against Enterococcus faecalis assessed as bacterial growth inhibition; assay type: toxicity; details: sheep red blood cells
# [12] = Selectivity index, ratio of HC50 for hemolytic activity in sheep RBC to IC50 for antibacterial activity against Escherichia coli assessed as bacterial growth inhibition; assay type: toxicity; details: sheep red blood cells
# [13] = Selectivity index, ratio of HC50 for hemolytic activity in sheep RBC to IC50 for antibacterial activity against Salmonella enterica assessed as bacterial growth inhibition; details: sheep red blood cells
# [14] = test system: Staphylococcus aureus; test: Antibacterial activity against methicillin-resistant Staphylococcus aureus clinical isolates assessed as bacterial growth inhibition incubated for 18 hrs by CLSI protocol based Mueller-Hinton broth assay; assay type: functional
# [15] = test system: Enterococcus faecium; test: Antibacterial activity against Enterococcus faecium clinical isolates assessed as bacterial growth inhibition incubated for 18 hrs by CLSI protocol based Mueller-Hinton broth assay; assay type: functional
# [16] = test system: Escherichia coli; test: Antibacterial activity against carbapenems-resistant Escherichia coli expressing blaNDM-5 clinical isolates assessed as bacterial growth inhibition incubated for 18 hrs by CLSI protocol based Mueller-Hinton broth assay; assay type: functional
# [17] = test system: Escherichia coli; test: Antibacterial activity against carbapenems-resistant Escherichia coli expressing blaNDM-3 clinical isolates assessed as bacterial growth inhibition incubated for 18 hrs by CLSI protocol based Mueller-Hinton broth assay; assay type: functional
# [18] = test system: Escherichia coli; test: Antibacterial activity against carbapenems-resistant Escherichia coli expressing blaNDM-9 clinical isolates assessed as bacterial growth inhibition incubated for 18 hrs by CLSI protocol based Mueller-Hinton broth assay; assay type: functional
# [19] = test system: Citrobacter freundii; test: Antibacterial activity against carbapenems-resistant Citrobacter freundii expressing blaNDM-1 clinical isolates assessed as bacterial growth inhibition incubated for 18 hrs by CLSI protocol based Mueller-Hinton broth assay; assay type: functional
# [20] = test system: Pseudomonas aeruginosa; test: Antibacterial activity against carbapenems-resistant Pseudomonas aeruginosa expressing blaVIM-1 clinical isolates assessed as bacterial growth inhibition incubated for 18 hrs by CLSI protocol based Mueller-Hinton broth assay; assay type: functional
# [21] = test system: Staphylococcus aureus; test: Bactericidal activity against methicillin-resistant Staphylococcus aureus assessed as decrease in viable count measured up to 4 hrs by time-killing kinetics assay; assay type: functional, organism-based; details: dose 2-4 µg/ml
# [22] = test system: Staphylococcus aureus; test: Bactericidal activity against methicillin-resistant Staphylococcus aureus assessed as decrease in viable count at 2 to 4 ug/ml by time-killing kinetics assay; assay type: functional, organism-based; details: dose 2-4 µg/ml, time <= 4.0 hrs, TDE = time-dependent effect
# [23] = test system: Staphylococcus aureus; test: Antibacterial activity against methicillin-resistant Staphylococcus aureus assessed as resistance development at 0.5 to 1 ug/ml measured after 20 days by resistance development assay; assay type: functional, organism-based; details: dose 0.5-1 µg/ml, time 20.0 day
# [24] = test system: Staphylococcus aureus; test: Induction of cytoplasmic membrane depolarization in methicillin-resistant Staphylococcus aureus assessed as enhancement of fluorescence intensity measured at 1 min interval for 16 mins by DiSC3(5) dye based fluorescence method; assay type: functional, organism-based; details: dose 0.5-16 µg/ml
# [25] = test system: Staphylococcus aureus; test: Induction of cytoplasmic membrane depolarization in methicillin-resistant Staphylococcus aureus assessed as fold increase in fluorescence intensity at 16 ug/ml measured at 1 min interval for 16 mins by DiSC3(5) dye based fluorescence method; assay type: functional; details: dose 16 µg/ml
# [26] = test system: Staphylococcus aureus; test: Antibacterial activity against methicillin-resistant Staphylococcus aureus assessed as bacterial growth inhibition in presence of phosphatidylglycerol incubated for 18 hrs by checkerboard microdilution assay; assay type: functional, organism-based
# [27] = test system: Staphylococcus aureus; test: Antibacterial activity against methicillin-resistant Staphylococcus aureus assessed as bacterial growth inhibition in presence of phosphoethanolamine incubated for 18 hrs by checkerboard microdilution assay; assay type: functional, organism-based
# [28] = test system: Staphylococcus aureus; test: Antibacterial activity against methicillin-resistant Staphylococcus aureus assessed as bacterial growth inhibition in presence of phosphatidylcholine incubated for 18 hrs by checkerboard microdilution assay; assay type: functional, organism-based
# [29] = test system: Staphylococcus aureus; test: Induction of intracellular ROS accumulation in methicillin-resistant Staphylococcus aureus assessed as increase in fluorescence intensity incubated for 30 mins by DCFH-DA dye based fluorescence assay; assay type: functional, organism-based; details: dose 0.125-8 µg/ml
# [30] = test system: Staphylococcus aureus; test: Induction of intracellular ROS accumulation in methicillin-resistant Staphylococcus aureus assessed as fold increase in fluorescence intensity at 0.5 ug/ml incubated for 30 mins by DCFH-DA dye based fluorescence assay; assay type: functional; details: dose 0.5 µg/ml
# [31] = test system: Staphylococcus aureus; test: Antibacterial activity against methicillin-resistant Staphylococcus aureus assessed as fold decrease in MIC in presence of NAC incubated for 18 hrs by CLSI protocol based Mueller-Hinton broth assay; assay type: functional
# [32] = test system: Staphylococcus aureus; test: Induction of morphological changes in methicillin-resistant Staphylococcus aureus assessed as appearance of wrinkled cell surface at 8 ug/ml incubated for 4 hrs by SEM analysis; assay type: functional, organism-based; details: dose 8.0 µg/ml
# [33] = test system: Staphylococcus aureus; test: Induction of morphological changes in methicillin-resistant Staphylococcus aureus assessed as appearance of shrunken cell surface at 8 ug/ml incubated for 4 hrs by SEM analysis; assay type: functional, organism-based; details: dose 8.0 µg/ml
# [34] = Cytotoxicity against HUVEC cells assessed as reduction in cell viability incubated for 72 hrs by CCK8 assay; assay type: toxicity, cell-based; details: human
# [35] = Toxicity in HUVEC cells assessed as morphological changes at 16 ug/ml incubated for 24 hrs by optical microscopy imaging analysis; assay type: cell-based; details: human, dose 16 µg/ml
# [36] = Toxicity in HUVEC cells assessed as live cells by measuring increase in green fluorescence at 16 ug/ml incubated for 24 hrs by calcein AM and propidium iodide staining based fuorescence microscopic analysis; assay type: cell-based; details: human, dose 16 µg/ml
# [37] = Toxicity in SPF Kunming mouse assessed as lethal dose administered for 3 days; details: in vivo, 72 h, time 3 day
# [38] = Metabolic stability in SPF Kunming mouse assessed as half life at 5 mg/kg/day, iv; assay type: ADME, organism-based; details: in vivo
# [39] = test system: Staphylococcus aureus; test: In vivo antibacterial activity against methicillin-resistant Staphylococcus aureus infected in SPF Kunming mouse assessed as reduction in amount of bacteria measure per abscess at 5 mg/kg ,ip administered every 12 hrs for 3 consecutive days; assay type: functional; details: time 3 day
# [40] = test system: Staphylococcus aureus; test: In vivo antibacterial activity against methicillin-resistant Staphylococcus aureus infected in SPF Kunming mouse assessed as reduction in amount of bacteria measured per abscess at 10 mg/kg ,ip administered every 12 hrs for 3 consecutive days; assay type: functional; details: time 3 day
# [41] = test system: Staphylococcus aureus; test: In vivo antibacterial activity against methicillin-resistant Staphylococcus aureus infected in SPF Kunming mouse assessed as reduction in neutrophils in skin tissue at 10 mg/kg ,ip administered every 12 hrs for 3 consecutive days; assay type: functional, organism-based; details: time 3.0 day
# [42] = test system: Staphylococcus aureus; test: Bactericidal activity against methicillin-resistant Staphylococcus aureus assessed as reduction in turbidity at 2 to 4 ug/ml measured after 6 hrs; assay type: functional, organism-based; details: dose 2-4 µg/ml
# [43] = test system: Staphylococcus aureus; test: Antibacterial activity against methicillin-resistant Staphylococcus aureus assessed as bacterial growth inhibition; assay type: functional
# [44] = test system: Enterococcus faecalis; test: Antibacterial activity against Enterococcus faecalis assessed as bacterial growth inhibition; assay type: functional
# [45] = test system: Escherichia coli; test: Antibacterial activity against Escherichia coli assessed as bacterial growth inhibition; assay type: functional
# [46] = test system: Stenotrophomonas maltophilia; test: Antibacterial activity against Stenotrophomonas maltophilia assessed as bacterial growth inhibition; assay type: functional
# [47] = Hemolytic activity in mammalian RBC assessed as hemolysis; assay type: toxicity, cell-based, Erythrocyte; details: mammalia, mammalian red blood cells
# [48] = Selectivity index, ratio of HC50 for hemolytic activity in mammalian RBC to MIC for antibacterial activity against methicillin-resistant Staphylococcus aureus assessed as bacterial growth inhibition; assay type: toxicity; details: mammalian red blood cells
# [49] = Hemolytic activity in human erythrocytes assessed as hemolysis; assay type: toxicity, cell-based, Erythrocyte
# [50] = Selectivity index, ratio of HC50 for hemolytic activity in human erythrocytes to MIC for antibacterial activity against methicillin-resistant Staphylococcus aureus assessed as bacterial growth inhibition; assay type: toxicity, cell-based
smiles,measurement,setting,value
CCCCCCCC[N+](C)(C)CC(=O)NCCCCCCNC(=O)C[N+](C)(C)CCCCCCCC.[Br-].[Br-],MIC,[1],1.9 µg/mL
same,HC50 at 1 h,[2],780 µg/mL
same,selectivity ratio,[3],410
CCCCCCN(CCCOc1ccccc1-c1ccccc1OCCCN(CCCCCC)C(=O)[C@@H](N)CCCCN)C(=O)[C@@H](N)CCCCN.Cl.Cl.Cl.Cl,"hemolysis at 1 h, 320 ug/ml",[4],< 1%
same,MIC,[5],0.5 µg/mL
same,MIC,[6],0.5 µg/mL
same,MIC,[7],2 µg/mL
same,MIC,[8],2 µg/mL
same,HC50 at 1 h,[9],> 1000 µg/mL
same,selectivity ratio,[10],> 2000
same,selectivity ratio,[11],> 2000
same,selectivity ratio,[12],> 500
same,selectivity ratio,[13],> 500
same,MIC50,[14],1 µg/mL
same,MIC90,[14],2 µg/mL
same,MIC50,[15],1 µg/mL
same,MIC90,[15],2 µg/mL
same,MIC,[16],2 µg/mL
same,MIC,[17],2 µg/mL
same,MIC,[18],2 µg/mL
same,MIC,[19],2 µg/mL
same,MIC,[20],2 µg/mL
same,Activity,[21],Dose-Dependent Effect
same,Activity,[22],Tde
same,Activity,[23],Active
same,Activity,[24],Active
same,fold change (FC),[25],10
same,inhibition,[26],Active
same,inhibition,[27],inactive
same,inhibition,[28],inactive
same,Activity,[29],Dose-Dependent Effect
same,fold change (FC),[30],3.4
same,fold change (FC),[31],16
same,Activity,[32],Active
same,Activity,[33],Active
same,CC50 at 72 h,[34],24.2 µg/mL
same,Activity,[35],Non-Toxic
same,Activity,[36],Non-Toxic
same,LD50,[37],> 200 mg/kg/day
same,half-life,[38],4.21 h
same,Activity,[39],758577.6 CFU
same,Activity,[40],46773.51 CFU
same,Activity,[41],Active
same,Activity,[42],Active
CCCCCCN(CCCCCCCCCCCCN(CCCCCC)C(=O)[C@@H](N)CCCCN)C(=O)[C@@H](N)CCCCN.Cl.Cl.Cl.Cl,MIC,[43],2 µg/mL
same,MIC,[44],1 µg/mL
same,MIC,[45],1 µg/mL
same,MIC,[46],1 µg/mL
CCCCCCCC[N+](C)(C)CCCCOc1ccc(OCCCC[N+](C)(C)CCCCCCCC)cc1.[Br-].[Br-],MIC,[43],0.25 µg/mL
same,HC50,[47],1210 µg/mL
same,selectivity ratio,[48],4840
CCCCCCN(Cc1ccc(-c2ccc(CN(CCCCCC)C(=O)[C@@H](N)CCCCN)cc2)cc1)C(=O)[C@@H](N)CCCCN.O=C(O)C(F)(F)F.O=C(O)C(F)(F)F.O=C(O)C(F)(F)F.O=C(O)C(F)(F)F,MIC,[5],2 µg/mL
same,MIC,[6],2 µg/mL
same,MIC,[7]; 18 h,4 µg/mL
same,MIC,[8],4 µg/mL
same,HC50 at 1 h,[9],276 µg/mL
same,selectivity ratio,[10],138
same,CC50 at 72 h,[34],14.2 µg/mL
same,MIC,[43],3.1 µg/mL
same,HC50,[49],230 µg/mL
same,selectivity ratio,[50],74.2
